# Measurements as given in patent US6737383B1, “Herbicidal oxadiazolidines” (priority 1999, dated 2004).
# Experiments:
# [1] = test system: rape; assay: Test B pre/postemergence rape; assay type: in vivo, Brassica napus
# Outline: (§1)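 Test chemicals in a non-phytotoxic solvent mixture with surfactant were sprayed preemergence onto planted seeds and postemergence onto plants 2 to 18 cm tall (1- to 4-leaf stage). After twelve to sixteen days in a greenhouse, injury was visually rated against untreated controls from 0 (no effect) to 10 (complete control).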
# [2] = test system: sugar beet; assay: Test B pre/postemergence sugar beet; assay type: in vivo, Beta vulgaris
# Outline: as §1
# [3] = test system: duck salad; assay: Test B flood test duck salad; assay type: in vivo, Heteranthera limosa; settings: for Plant response rating, Ducksalad (0 to 10 scale, 0 is no effect, 10 is complete control) / Ducksalad plant response rating (0 to 10 scale, 0 is no effect, 10 is complete control): visual evaluation after twelve to sixteen days; for Ducksalad plant response rating (0 to 10 scale, 0 is no effect, 10 is complete control): under heading Pre-emergence
# Outline: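 Flood test on plants grown to the 2-leaf stage; treated plants kept in greenhouse twelve to sixteen days, then visually rated against controls on a 0 (no effect) to 10 (complete control) scale.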
# [4] = test system: corn; assay: Test B pre/postemergence corn; assay type: in vivo, Zea mays
# Outline: as §1
# [5] = Preemergence, Rate 62 g/ha, scale of 0 to 10 where 0 is no effect and 10 is complete control
# [6] = Preemergence, Rate 250 g/ha, scale of 0 to 10 where 0 is no effect and 10 is complete control
# [7] = Preemergence, Rate 500 g/ha, scale of 0 to 10 where 0 is no effect and 10 is complete control
# [8] = Rate 62 g/ha, Postemergence, scale of 0 to 10 where 0 is no effect and 10 is complete control
# [9] = Rate 125 g/ha, Postemergence, scale 0 to 10
# [10] = Rate 125 g/ha, Preemergence, scale of 0 to 10 where 0 is no effect and 10 is complete control
# [11] = Rate 500 g/ha, Postemergence, scale 0 to 10, 0 no effect, 10 complete control
# [12] = Rate 250 g/ha, Pre-emergence, flood-test species, scale 0 to 10, 0 is no effect, 10 is complete control
# [13] = Rate 500 g/ha, Pre-emergence, flood test species, scale 0 to 10 (0 no effect, 10 complete control)
# [14] = Postemergence, Rate 125 g/ha, scale 0 to 10, 0 is no effect, 10 is complete control
# [15] = Postemergence, Rate 250 g/ha, scale 0 to 10, 0 is no effect, 10 is complete control
# [16] = Preemergence, Rate 62 g/ha, scale 0 to 10 (0 no effect, 10 complete control)
# [17] = Rate 62 g/ha, flood test species, Pre-emergence
# [18] = Rate 125 g/ha, flood test species
# [19] = Postemergence, Rate 250 g/ha, scale 0 to 10
# [20] = Preemergence, Rate 125 g/ha, scale of 0 to 10 where 0 is no effect and 10 is complete control
# [21] = Preemergence, Rate 250 g/ha, scale 0 to 10, 0 is no effect, 10 is complete control
# [22] = Preemergence, Rate 500 g/ha, scale 0 to 10, 0 is no effect, 10 is complete control
# [23] = Rate 62 g/ha, Postemergence, scale 0 to 10, 0 no effect, 10 complete control
# [24] = Rate 125 g/ha, Postemergence, scale 0 to 10, 0 is no effect, 10 is complete control
# [25] = Rate 250 g/ha, Pre-emergence (flood test species), scale 0 to 10, 0 is no effect, 10 is complete control
# [26] = Postemergence, Rate 62 g/ha, scale 0 to 10, 0 is no effect, 10 is complete control
# [27] = Postemergence, Rate 125 g/ha, scale of 0 to 10 where 0 is no effect and 10 is complete control
# [28] = Preemergence, Rate 250 g/ha, scale 0 to 10 (0 no effect, 10 complete control)
# [29] = Rate 500 g/ha, Postemergence, scale 0 to 10, 0 is no effect, 10 is complete control
structure (smiles),measurement,setting,value
CCN(C(=O)n1oc(=O)n(C)c1=O)C1CCCCC1 [Compound 228],Rape plant response rating,[1]; [5],0
same,Rape plant response rating,[1]; [6],0
same,"Plant response rating, Rape",[1]; [7],0
same,Rape plant response rating,[1]; [8],0
same,Rape plant response rating,[1]; [9],0
same,Rape plant response rating,[1]; [10],0
same,"Plant response rating (0 to 10; 0 is no effect, 10 is complete control), Rape","[1]; Rate 250 g/ha, Postemergence",0
same,Rape plant response rating,[1]; [11],0
same,Sugarbeets plant response rating,[2]; [5],0
same,Sugarbeets plant response rating,[2]; [6],0
same,"Plant response rating, Sugarbeets",[2]; [7],0
same,Sugarbeets plant response rating,[2]; [8],0
same,Sugarbeets plant response rating,[2]; [9],0
same,Sugarbeets plant response rating,[2]; [10],0
same,"Plant response rating (0 to 10; 0 is no effect, 10 is complete control), Sugarbeets","[2]; Rate 250 g/ha, Postemergence",3
same,Sugarbeets plant response rating,[2]; [11],4
same,Ducksalad plant response rating,"[3]; Rate 62 g/ha, headed Pre-emergence (flood test species), scale 0 to 10 (0 no effect, 10 complete control)",0
same,Ducksalad plant response rating,"[3]; Rate 125 g/ha, Pre-emergence, flood test species, scale 0 to 10 where 0 is no effect and 10 is complete control",0
same,Ducksalad plant response rating,[3]; [12],0
same,Ducksalad plant response rating,[3]; [13],0
same,Corn plant response rating,[4]; [5],0
same,Corn plant response rating,[4]; [6],0
same,"Plant response rating, Corn",[4]; [7],0
same,Corn plant response rating,[4]; [8],0
same,Corn plant response rating,[4]; [9],0
same,Corn plant response rating,[4]; [10],0
same,"Plant response rating (0 to 10; 0 is no effect, 10 is complete control), Corn","[4]; Rate 250 g/ha, Postemergence",0
same,Corn plant response rating,[4]; [11],2
CC(C)N(C(=O)n1oc(=O)n(N2CCOCC2)c1=O)c1ccc(F)cc1F [Compound 384],"Plant response rating, Rape",[1]; [14],0
same,"Plant response rating, Rape",[1]; [15],0
same,"Plant response rating, Rape",[1]; [16],0
same,Rape plant response rating (0 to 10 scale),"[1]; Preemergence, Rate 125 g/ha",0
same,Rape plant response rating,[1]; [6],0
same,Rape plant response rating,[1]; [7],0
same,Rape plant response rating,[1]; [8],0
same,"Plant response rating, Sugarbeets",[2]; [14],0
same,"Plant response rating, Sugarbeets",[2]; [15],0
same,"Plant response rating, Sugarbeets",[2]; [16],0
same,Sugarbeets plant response rating (0 to 10 scale),"[2]; Preemergence, Rate 125 g/ha",0
same,Sugarbeets plant response rating,[2]; [6],0
same,Sugarbeets plant response rating,[2]; [7],2
same,Sugarbeets plant response rating,[2]; [8],0
same,"Plant response rating, Sugarbeets",[2]; [11],0
same,"Plant response rating, Ducksalad (0 to 10 scale, 0 is no effect, 10 is complete control)",[3]; [17],0
same,"Ducksalad plant response rating (0 to 10 scale, 0 is no effect, 10 is complete control)",[3]; [18],0
same,Ducksalad plant response rating,[3]; [12],0
same,Ducksalad plant response rating,[3]; [13],0
same,"Plant response rating, Corn",[4]; [14],0
same,"Plant response rating, Corn",[4]; [15],0
same,"Plant response rating, Corn",[4]; [16],0
same,Corn plant response rating,[4]; [7],5
same,Corn plant response rating,[4]; [8],0
same,"Plant response rating, Corn",[4]; [11],0
C=CC(OC)n1c(=O)on(C(=O)N(c2ccc(F)cc2)C(C)C)c1=O (centres unmarked) [Compound 452],Rape plant response rating,[1]; [19],0
same,"Plant response rating, Rape",[1]; [5],0
same,"Plant response rating, Rape",[1]; [20],0
same,Rape plant response rating,[1]; [21],0
same,Rape plant response rating,[1]; [22],0
same,Rape plant response rating,[1]; [23],0
same,Rape plant response rating,[1]; [24],0
same,Sugarbeets plant response rating,[2]; [19],0
same,"Plant response rating, Sugarbeets",[2]; [5],0
same,"Plant response rating, Sugarbeets",[2]; [20],0
same,Sugarbeets plant response rating,[2]; [21],0
same,Sugarbeets plant response rating,[2]; [22],0
same,Sugarbeets plant response rating,[2]; [23],0
same,Sugarbeets plant response rating,[2]; [24],0
same,"Plant response rating, Ducksalad (0 to 10 scale, 0 is no effect, 10 is complete control)",[3]; [17],0
same,"Ducksalad plant response rating (0 to 10 scale, 0 is no effect, 10 is complete control)",[3]; [18],0
same,Ducksalad plant response rating,[3]; [25],0
same,Ducksalad plant response rating,[3]; [13],0
same,Corn plant response rating,[4]; [19],0
same,Corn plant response rating,"[4]; Postemergence, Rate 500 g/ha, scale of 0 to 10 where 0 is no effect and 10 is complete control",0
same,"Plant response rating, Corn",[4]; [5],0
same,"Plant response rating, Corn",[4]; [20],0
same,Corn plant response rating,[4]; [21],0
same,Corn plant response rating,[4]; [22],0
same,Corn plant response rating,[4]; [23],0
same,Corn plant response rating,[4]; [24],0
C=C(Cn1c(=O)on(C(=O)N(c2ccccc2)C(C)C)c1=O)C(C)C [Compound 649],"Plant response rating, Rape",[1]; [26],0
same,Rape plant response rating,[1]; [27],0
same,Rape plant response rating,[1]; [5],0
same,Rape plant response rating,[1]; [20],0
same,"Plant response rating, Rape",[1]; [28],0
same,"Plant response rating, Rape",[1]; [7],0
same,Rape plant response rating,[1]; [29],0
same,"Plant response rating, Sugarbeets",[2]; [26],0
same,Sugarbeets plant response rating,[2]; [27],0
same,Sugarbeets plant response rating,[2]; [20],0
same,"Plant response rating, Sugarbeets",[2]; [28],0
same,"Plant response rating, Sugarbeets",[2]; [7],0
same,Sugarbeets plant response rating,[2]; [29],0
same,"Plant response rating, Ducksalad (0 to 10 scale, 0 is no effect, 10 is complete control)",[3]; [17],0
same,"Ducksalad plant response rating (0 to 10 scale, 0 is no effect, 10 is complete control)",[3]; [18],0
same,Ducksalad plant response rating,[3]; [25],0
same,Ducksalad plant response rating,"[3]; Rate 500 g/ha, Pre-emergence section of Table B, 0 to 10 scale (0 no effect, 10 complete control)",0
same,"Plant response rating, Corn",[4]; [26],0
same,Corn plant response rating,[4]; [27],0
same,Corn plant response rating,"[4]; Postemergence, Rate 250 g/ha, scale of 0 to 10, 0 is no effect, 10 is complete control",0
same,Corn plant response rating,[4]; [5],0
same,Corn plant response rating,[4]; [20],0
same,"Plant response rating, Corn",[4]; [28],0
same,"Plant response rating, Corn",[4]; [7],0
same,Corn plant response rating,[4]; [29],0
